Patent US20090318385A1, “Pyrazolopyride derivative and phosphodiesterase ( pde) inhibitors containing the same as active ingredient” (priority 2006, published 2009)

Assays:
PDE4B catalytic domain = molecular target: T1, PDE4B catalytic domain (Homo sapiens, UniProt Q07343); test: Phosphodiesterase inhibitory activity (recombinant PDE4Bcat, [3H]cAMP); type: biochemical; settings: 30° C. for 20 minutes, read-out: IC50 (μmol/L) PDE4
T1 construct: The cDNA of PDE4B catalytic domain (hereinafter abbreviated as Cat) was isolated from human RNA by RT-PCR; made in house; host or cells: Sf9 insect cells (baculovirus, Bac-to-Bac)
Description: The cDNA of PDE4B catalytic domain (hereinafter abbreviated as Cat) was isolated from human RNA by RT-PCR. The isolated cDNA fragments were inserted into Sf9 insect cells using Gateway system (product of Invitrogen Corporation) and Bac-to-Bac (registered trademark) Baculovirus Expression system (product of Invitrogen Corporation) to express a target PDE protein. The recombinant PDE4Bcat was purified from the culture supernatants or cell extracts of Sf9 cells expressing high levels of the PDE protein by ion exchange chromatography and was used for the following experiments.
A 4 mmol/L solution of each test compound was serially diluted four-fold with a 15% DMSO solution to prepare solutions with concentrations of 15 nmol/L to 4 mmol/L (the final concentrations used in the experiments were 1.5 nmol/L to 400 μmol/L). 10 μL of the prepared test compound solutions, [^3H] cAMP diluted with a buffer solution (40 mmol/L Tris-HCl (pH: 7.4), 10 mmol/L MgCl2), and 40 μL of the recombinant human PDE protein (2×10^−6 units, 1 unit is defined as the amount of PDE that breaks down 1 μmol/L of cAMP in one minute under the conditions of a pH of 7.5 and 30° C.) were added to a 96-well plate. The mixtures were reacted at 30° C. for 20 minutes. Then, the resultant mixtures were reacted at 65° C. for 2 minutes. Subsequently, […] of 1 mg/mL 5′-nucleotidase (Crotalusatrox venom, product of Sigma) was added to the mixtures, and the mixtures were reacted at 30° C. for 10 minutes. After completion of the reaction, 200 μL of a solution of Dowex (300 mg/mL Dowex 1x8-400 (product of Sigma Aldrich), 33% ethanol) was added to the mixtures, and the mixtures were shaken at 4° C. for 20 minutes. Subsequently, 200 μL of MicroScint 20 (product of Packard) was added to the mixtures, and measurement was performed using a scintillation counter (Topcount, product of Packard). IC50 values were calculated using Graph Pad Prism v3.03 (product of GraphPad Software). When 1 μmol/L>the IC50 value≧0.1 μmol/L, the results were represented by “+.” When 0.1 μmol/L>the IC50 value, the results were represented by “++.”

[1] = tested on: total number of leukocytes in bronchoalveolar lavage fluid after LPS inhalation; test: LPS acute inflammation model in rats; type: in vivo; settings: Rattus norvegicus, Leukocyte, po, 3 mg/kg orally one hour before LPS inhalation, total leukocytes in BALF 3 hours after LPS inhalation, read-out: Inhibition ratio
Method: 3 mg/kg of the compounds were orally administered to rats one hour before inhalation of lipopolysaccharide (LPS) from E. coli serotype 055:B5, rats were inhalted nebulizing LPS solution (50 mL) by nebulizer for 30 minutes. Then, 3 hours after the LPS inhalation, rats were euthanized with 20% urethane (5 ml/rat, i.p.) 5 ml of physiological saline for bronchoalveolar lavage was injected into the bronchoalveolar space through the airway, and the bronchoalveolar space was washed 3 times using a 5 mL syringe. This procedure was repeated twice, and the solution was collected as bronchoalveolar lavage fluid (BALF). The collected BALF was centrifuged at 1,200 rpm and 4° C. for 10 minutes (Hirtachi; himac CR 5 DL). The sediment was re-suspended in 10 mL of a 0.1% bovine serum albumin-physiological saline, and an equivalent amount of Turk's solution was added to the suspension to stain leukocytes. The total number of leukocytes was counted under a microscope to determine the inhibition ratio. When the inhibition ratio≧60%, the results were represented by “++.” When 60%>the inhibition ratio≧30%, the results were represented by “+.”

[2] = tested on: histamine-induced bronchoconstriction; test: Histamine-induced airway contraction reaction in guinea pigs; type: in vivo; settings: test compound 1 mg/kg i.v., histamine 12.5 μg/kg i.v., airflow 30 seconds after administration
Method: Guinea pigs were anesthetized with pentobarbital (30 mg/kg, i.p.). A cannula for intravenous administration, a cannula for collecting blood and measuring blood pressure, and a tracheal cannula were inserted into the left external jugular vein, right internal carotid artery, and trachea, respectively. The guinea pigs were maintained on artificial respiration under the conditions of 60 times/min and 10 mL/kg/stroke. The airflow from the side branch of the tracheal cannula was measured by a bronchospasm transducer (Ugo-Basile) and recorded on a computer via Power Lab (ADInstruments Japan). The guinea pigs were immobilized with gallamine (10 mg/kg, i.v.), and histamine was administered at 10-minute intervals (12.5 μg/kg, i.v.). After the histamine-induced bronchoconstriction was constant, one of the test compounds (1 mg/kg, i.v.) dissolved in DMSO was administered. We examined the inhibitory action of test compounds on histamine-induced bronchoconstriction 30 seconds after compounds administration. Bronchoconstriction was recorded as the value of airflow, and the results were represented by the ratio of the maximum value of the histamine-induced airflow 30 seconds after the administration to the maximum value of the airflow before the administration. When the inhibition ratio≧90%, the results were represented by “+++.” When 90%>the inhibition ratio≧70%, the results were represented by “++.” When 70%>the inhibition ratio≧30%, the results were represented by “+.”

T1 sequence (Q07343 330-659 limits assumed): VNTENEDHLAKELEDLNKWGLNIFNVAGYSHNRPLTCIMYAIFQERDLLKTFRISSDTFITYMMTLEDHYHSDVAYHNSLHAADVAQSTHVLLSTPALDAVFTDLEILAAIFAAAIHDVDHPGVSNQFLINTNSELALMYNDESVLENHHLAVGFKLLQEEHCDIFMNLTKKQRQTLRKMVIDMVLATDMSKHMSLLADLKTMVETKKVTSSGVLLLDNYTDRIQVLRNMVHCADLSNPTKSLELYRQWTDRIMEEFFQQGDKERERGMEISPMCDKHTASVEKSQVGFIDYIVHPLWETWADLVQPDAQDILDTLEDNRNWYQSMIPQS

In the case of `COc1ccc(C(=O)Cc2cc[n+]([O-])cc2)c2cc(C(F)(F)F)nn12` [Example 93, 4-(2-(7-Methoxy-2-(trifluoromethyl)pyrazolo[1,5-a]pyridin-4-yl)-2-oxoethyl)pyridine 1-oxide], the melting point is reported as 157 to 161 °C (dec.), the IC50 (PDE4B catalytic domain) is reported as less than 0.1 µmol/L and the inhibition in vivo at 3 mg/kg [1] is reported as no less than 60%.
With `COc1ccc(CCc2ccncc2)c2cc(C(F)F)nn12` [Example 104, 2-(Difluoromethyl)-7-methoxy-4-(2-(pyridin-4-yl)ethyl)pyrazolo[1,5-a]pyridine] the melting point was 121 to 123 °C.
In the case of `CNc1ccc(C(=O)Cc2c(Cl)cncc2Cl)c2cc(C(F)(F)F)nn12` [Example 99, 2-(3,5-Dichloropyridin-4-yl)-1-(7-(methylamino)-2-(trifluoromethyl)pyrazolo[1,5-a]pyridin-4-yl)ethanone], the melting point is reported as 220 to 223 °C and the IC50 (PDE4B catalytic domain) is reported as less than 0.1 µmol/L.
With `COc1ccc(/C(=C/c2ccncc2)c2ccccc2)c2cc(C(F)(F)F)nn12` [Example 84, (E)-7-methoxy-4-[1-phenyl-2-(pyridin-4-yl)vinyl]-2-trifluoromethylpyrazolo[1,5-a]pyridine] the IC50 (PDE4B catalytic domain) was less than 0.1 µmol/L.
In the case of `COc1ccc(C(Cc2ccncc2)c2ccccc2)c2cc(C(F)(F)F)nn12` (stereo not shown) [Example 86, 7-Methoxy-4-[1-phenyl-2-(pyridin-4-yl)ethyl]-2-trifluoromethylpyrazolo[1,5-a]pyridine], the IC50 (PDE4B catalytic domain) is reported as less than 0.1 µmol/L.
With `COc1ccc(CCc2c(Cl)cncc2Cl)c2cc(C(F)(F)F)nn12` [Example 95, 4-(2-(3,5-Dichloropyridin-4-yl)ethyl)-7-methoxy-2-(trifluoromethyl)pyrazolo[1,5-a]pyridine] the melting point was 158 to 160 °C (dec.).
In the case of `COc1ccc(C(=O)Cc2ccncc2Cl)c2cc(C(F)F)nn12` [Example 111, 2-(3-Chloropyridin-4-yl)-1-(2-(difluoromethyl)-7-methoxypyrazolo[1,5-a]pyridin-4-yl)ethanone], the melting point is reported as 191 to 194 °C (dec.).
With `COc1ccc(C(=O)Cc2ccncc2)c2cc(C(F)(F)F)nn12` [80 (90), 1-(7-Methoxy-2-trifluoromethylpyrazolo[1,5-a]pyridin-4-yl)-2-(pyridin-4-yl)ethanone] the Inhibition ratio [2] was “+++ (When the inhibition ratio≧90%, the results were represented by “+++.”)” and the IC50 (PDE4B catalytic domain) was less than 0.1 µmol/L.
Compound `CNc1ccc(C(=O)Cc2c(Cl)cncc2Cl)c2cc(C3CC3)nn12` [Example 123, 1-(2-Cyclopropyl-7-(methylamino)pyrazolo[1,5-a]pyridin-4-yl)-2-(3,5-dichloropyridin-4-yl)ethanone] has a melting point of 196 to 200 °C.
For `COc1ccc(C(=O)Cc2c(Cl)c[n+]([O-])cc2Cl)c2cc(C(F)(F)F)nn12` [Example 92, 3,5-Dichloro-4-(2-(7-methoxy-2-(trifluoromethyl)pyrazolo[1,5-a]pyridin-4-yl)-2-oxoethyl)pyridine 1-oxide], the IC50 (PDE4B catalytic domain) was less than 0.1 µmol/L and the inhibition in vivo at 3 mg/kg [1] was no less than 60%.
In the case of `COc1ccc(CCc2c(Cl)cncc2Cl)c2cc(C(F)F)nn12` [Example 102, 4-(2-(3,5-Dichloropyridin-4-yl)ethyl)-2-(difluoromethyl)-7-methoxypyrazolo[1,5-a]pyridine], the melting point is reported as 153 to 156 °C.
With `COc1ccc(C(O)Cc2ccncc2)c2cc(C(F)(F)F)nn12` (stereo not shown) [Example 77, 1-(7-Methoxy-2-trifluoromethylpyrazolo[1,5-a]pyridin-4-yl)-2-(pyridin-4-yl)ethanol] the Inhibition ratio [2] was “+ (When 70%>the inhibition ratio≧30%, the results were represented by “+.”)” and the IC50 (PDE4B catalytic domain) was 0.1 to 1 µmol/L.
With `COc1ccc(C(=O)Cc2c(Cl)cncc2Cl)c2cc(C(F)F)nn12` [Example 107, 2-(3,5-dichloropyridin-4-yl)-1-(2-(difluoromethyl)-7-methoxypyrazolo[1,5-a]pyridin-4-yl)ethanone] the melting point was 208 to 211 °C (dec.).
Work on `COc1ccc(C(O)Cc2c(Cl)cncc2Cl)c2cc(C(F)(F)F)nn12` (stereo not shown) [Example 87, 2-(3,5-Dichloropyridin-4-yl)-1-(7-methoxy-2-trifluoromethylpyrazolo[1,5-a]pyridin-4-yl)ethanol] yielded an IC50 (PDE4B catalytic domain) of less than 0.1 µmol/L.
`CN(C)c1ccc(C(=O)Cc2c(Cl)cncc2Cl)c2cc(C3CC3)nn12` [Example 124, 1-(2-Cyclopropyl-7-(dimethylamino)pyrazolo[1,5-a]pyridin-4-yl)-2-(3,5-dichloropyridin-4-yl)ethanone] gave a melting point of 216 to 220 °C.
With `COc1ccc(C(=O)Cc2c(Cl)c[n+]([O-])cc2Cl)c2cc(C#N)nn12` [Example 142, 3,5-Dichloro-4-(2-(2-cyano-7-methoxypyrazolo[1,5-a]pyridin-4-yl)-2-oxoethyl)pyridine 1-oxide] the IC50 (PDE4B catalytic domain) was less than 0.1 µmol/L and the inhibition in vivo at 3 mg/kg [1] was no less than 60%.
For `COc1ccc(C(=O)Cc2ccncc2)c2cc(C(F)F)nn12` [Example 109, 1-(2-(Difluoromethyl)-7-methoxypyrazolo[1,5-a]pyridin-4-yl)-2-(pyridin-4-yl)ethanone], the melting point was 186 to 191 °C (dec.).
Compound `COc1ccc(C(=O)Cc2c(Cl)c[n+]([O-])cc2Cl)c2cc(C(F)F)nn12` [Example 108, 3,5-Dichloro-4-(2-(2-(difluoromethyl)-7-methoxypyrazolo[1,5-a]pyridin-4-yl)-2-oxoethyl)pyridine 1-oxide] has an IC50 (PDE4B catalytic domain) of less than 0.1 µmol/L and an inhibition in vivo at 3 mg/kg [1] of no less than 60%.
For `COc1ccc(CCc2cc[n+]([O-])cc2)c2cc(C(F)(F)F)nn12` [Example 91, 4-(2-(7-Methoxy-2-(trifluoromethyl)pyrazolo[1,5-a]pyridin-4-yl)ethyl)pyridine 1-oxide], the IC50 (PDE4B catalytic domain) was less than 0.1 µmol/L and the inhibition in vivo at 3 mg/kg [1] was no less than 60%.
Work on `COc1ccc(C(=O)Cc2ccncc2Cl)c2cc(C(F)(F)F)nn12` [Example 97, 2-(3-Chloropyridin-4-yl)-1-(7-methoxy-2-(trifluoromethyl)pyrazolo[1,5-a]pyridin-4-yl)ethanone] yielded a melting point of 188 to 191 °C.
For `COc1ccc(C(=O)Cc2c(Cl)cncc2Cl)c2c(Cl)c(C3CC3)nn12` [Example 122, 1-(3-Chloro-2-cyclopropyl-7-methoxypyrazolo[1,5-a]pyridin-4-yl)-2-(3,5-dichloropyridin-4-yl)ethanone], the IC50 (PDE4B catalytic domain) was less than 0.1 µmol/L and the inhibition in vivo at 3 mg/kg [1] was no less than 60%.
In the case of `CN(C)c1ccc(C(=O)Cc2c(Cl)cncc2Cl)c2cc(C(F)(F)F)nn12` [Example 100, 2-(3,5-Dichloropyridin-4-yl)-1-(7-(dimethylamino)-2-(trifluoromethyl)pyrazolo[1,5-a]pyridin-4-yl)ethanone], the melting point is reported as 234 to 238 °C.
`COc1ccc(C(=O)Cc2ccncc2)c2cc(C3CC3)nn12` [Example 121, 1-(2-Cyclopropyl-7-methoxypyrazolo[1,5-a]pyridin-4-yl)-2-(pyridin-4-yl)ethanone] gave an IC50 (PDE4B catalytic domain) of less than 0.1 µmol/L and an inhibition in vivo at 3 mg/kg [1] of no less than 60%.
